Patent US5451688A, “Hexahydronaphthalene ester derivatives, their preparation and their therapeutic uses” (Sankyo Company, Limited, priority 1992, dated 1995)
Read-outs that look alike come from different tables or passages of the source.

Legend:
HMG-CoA reductase = biological target: T1, HMG-CoA reductase (Rattus norvegicus, UniProt P51639); assay: HMG-CoA reductase inhibitory activity; assay type: biochemical; details: rat liver microsomal fraction, 0.2 mM [14C]HMG-CoA, pH 7.4, 15 minutes at 37° C.
T1 sequence (P51639 1-887): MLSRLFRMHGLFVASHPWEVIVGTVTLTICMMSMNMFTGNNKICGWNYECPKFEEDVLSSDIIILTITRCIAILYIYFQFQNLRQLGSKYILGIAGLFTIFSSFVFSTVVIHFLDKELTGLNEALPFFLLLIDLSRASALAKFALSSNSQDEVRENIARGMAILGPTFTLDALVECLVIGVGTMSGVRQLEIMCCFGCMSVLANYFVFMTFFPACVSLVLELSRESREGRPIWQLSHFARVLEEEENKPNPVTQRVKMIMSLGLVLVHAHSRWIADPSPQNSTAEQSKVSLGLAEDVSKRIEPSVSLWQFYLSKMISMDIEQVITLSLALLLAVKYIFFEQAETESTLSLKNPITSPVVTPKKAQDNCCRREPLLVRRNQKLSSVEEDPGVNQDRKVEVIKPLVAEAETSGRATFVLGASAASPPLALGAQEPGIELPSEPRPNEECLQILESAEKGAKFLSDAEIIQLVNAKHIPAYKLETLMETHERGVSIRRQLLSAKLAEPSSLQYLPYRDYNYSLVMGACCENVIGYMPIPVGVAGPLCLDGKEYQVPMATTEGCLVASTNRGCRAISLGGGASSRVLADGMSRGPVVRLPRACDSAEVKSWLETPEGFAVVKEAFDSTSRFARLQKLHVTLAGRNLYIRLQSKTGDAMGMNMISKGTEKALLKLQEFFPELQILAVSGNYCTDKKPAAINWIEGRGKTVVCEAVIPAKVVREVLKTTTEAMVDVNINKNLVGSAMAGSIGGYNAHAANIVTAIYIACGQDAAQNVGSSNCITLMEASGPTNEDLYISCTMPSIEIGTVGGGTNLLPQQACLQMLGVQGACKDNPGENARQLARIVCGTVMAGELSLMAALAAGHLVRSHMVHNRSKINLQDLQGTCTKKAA

[1] = test system: sterol synthesis in the liver; assay: inhibitory activity against sterol synthesis in mouse liver; assay type: in vivo; details: read-out: Sterol-synthesis inhibitory activity ED50
Method: Detemination of inhibitory activity against sterol synsthesis in mouse liver
Sterol synthesis in the liver in mice was measured by the method of Koga et al. [Biochem. Biophys.
15 μl of [^14 C]acetate was intraperitoneally injected into each mouse. One hour later, the animal was sacrificed by decapitation and the liver was excised. Sterol synthesis in the liver was measured by the incorporation of [^14 C]activity into the digitoninprecipitable sterols.
The sterol synthesis activity in a control animal receiving only a 1% Tween 80 solution was defined as 100%.

[2] = mice, oral, 2 hours before [14C]acetate, dose required to inhibit sterol synthesis in the liver by 50%

CCCC(CCC)C(=O)O[C@H]1C[C@H](O)C=C2C=C[C@H](C)[C@H](CC[C@@H](O)C[C@@H](O)CC(=O)[O-])[C@H]21.[Na+] showed an IC50 (HMG-CoA reductase) of 35.5 nM and an ED50 ([1]; po) of 0.15 mg/kg.
For CCC(C)(CC)C(=O)O[C@H]1C[C@H](O)C=C2C=C[C@H](C)[C@H](CC[C@@H](O)C[C@@H](O)CC(=O)O)[C@H]21 [Example 51, Sodium (3R,5R)-3,5-dihydro-7-[(1S,2S,6S,8S,8aR)-6-hydroxy-2-methyl-8-(2-ethyl-2-methylbutyryloxy)-1,2,6,7,8,8a-hexahydro-1-naphthyl]heptanoate], the IC50 (HMG-CoA reductase) was 33.8 nM and the ED50 [1, 2] was 0.063 mg/kg.
CCC(CC)(CC)C(=O)O[C@H]1C[C@H](O)C=C2C=C[C@H](C)[C@H](CC[C@@H](O)C[C@@H](O)CC(=O)O)[C@H]21 [Example 52, Sodium (3R,5R)-3,5-dihydroxy-7-[(1S,2S,6S,8S,8aR)-6-hydroxy-2-methyl-8-(2.2-diethylbutyryloxy)-1,2,6,7,8,8a-hexahydro-1-naphthyl]heptanoate] showed an IC50 (HMG-CoA reductase) of 32.3 nM and an ED50 [1, 2] of 0.054 mg/kg.
With C=CCC(CC)(CC)C(=O)O[C@H]1C[C@H](O)C=C2C=C[C@H](C)[C@H](CC[C@@H](O)C[C@@H](O)CC(=O)O)[C@H]21 [Example 64, Sodium (3R,5R),3,5-dihydroxy-7-[(1S,2S,6S,8S,8aR)-6-hydroxy-2-methyl-8-(2,2-diethyl-4-pentenoyloxy)-1,2,6,7,8,8a-hexahydro-1-naphthyl]heptanoate] the IC50 (HMG-CoA reductase) was 34.4 nM and the ED50 [1, 2] was 0.13 mg/kg.
For C=CCC(CC)(CC=C)C(=O)O[C@H]1C[C@H](O)C=C2C=C[C@H](C)[C@H](CC[C@@H](O)C[C@@H](O)CC(=O)O)[C@H]21 [Example 65, Sodium (3R,5R)-3,5-dihydroxy-7-[(1S,2S,6S,8S,8aR)-6-hydroxy-2-methyl-8-(2-allyl-2-ethyl-4-pentenoyloxy)-1.2.6,7,8,8a-hexahydro-1-naphthyl]heptanoate], the IC50 (HMG-CoA reductase) was 36.6 nM and the ED50 [1, 2] was 0.19 mg/kg.
For CCC[C@](C)(CC)C(=O)O[C@H]1C[C@H](O)C=C2C=C[C@H](C)[C@H](CC[C@@H](O)C[C@@H](O)CC(=O)O)[C@H]21 [Example 67, Sodium (3R,5R)-3,5-dihydroxy-7-[(2S,2S,6S,8S,8aR)-6-hydroxy-2-methyl-8-(2-ethyl-2-methylvaleryloxy)-1,2,6,7,8,8a-hexahydro-1-naphthyl]heptanoate], the IC50 (HMG-CoA reductase) was 32.1 nM and the ED50 [1, 2] was 0.048 mg/kg.
For CCCCC(C)(C)C(=O)O[C@H]1C[C@H](O)C=C2C=C[C@H](C)[C@H](CC[C@@H](O)C[C@@H](O)CC(=O)O)[C@H]21 [Example 69, Sodium (3R,5R)-3,5-dihydroxy-7-[(1S,2S,6S,8S,8aR)-6-hydroxy-2-methyl-8-[2,2-dimethylhexanoyloxy)-1,2.6.7,8,8a-hexahydro-1-naphthyl]heptanoate], the IC50 (HMG-CoA reductase) was 32.9 nM and the ED50 [1, 2] was 0.028 mg/kg.
Compound CCC(C)(C)C(=O)OC1CC(O)C=C2C=CC(C)C(CCC3CC(O)CC(=O)O3)C21 (stereo not shown) [Prior art cpd., reference compound] has an IC50 (HMG-CoA reductase) of 44.9 nM and an ED50 [1, 2] of 0.58 mg/kg.
